We go through 8 molecules from EP0048954A2, “Beta-lactam compounds, process for the preparation thereof and intermediate products for the preparation thereof” (SAGAMI CHEMICAL RESEARCH CENTER, priority 1980, dated 1982).

Test in all cases: Antibacterial activity, minimum inhibition concentration (method of The Chemotherapy Association, Japan)
Common to all, as to type: cell-based

For one assay, the system named is Proteus vulgaris OX-19. Particulars: for minimum inhibition concentration: strain H: Proteus vulgaris OX-19; for MIC: Proteus vulgaris, OX19, strain H: Proteus vulgaris OX-19, read-out: minimum inhibition concentration. The source says: (§1) The abbreviations A to P will be used in the following Tables 2 to 8.
(§2) Test results are shown in terms of the minimum inhibition concentration (µg/mℓ.) in the following Tables 2 to 8.

Assay [1] deals with Pseudomonas aeruginosa NCTC-10490. Particulars: for minimum inhibition concentration: strain M: Pseudomonas aeruginosa NCTC-10490; for MIC: Pseudomonas aeruginosa. Here is the method:
(§3) Antibacterial activities of the compounds according to this invention, which had been prepared in the preceding Examples, were measured according to the method prescribed by The Committee of Amendment of "The method for measurement of the minimum inhibition concentration", The Chemotherapy Association, Japan (See Chemotherapy, Vol. 22, No. 6, pp. 1126 - 1128 (1974) and Vol. 29, No. 1, pp. 76 - 79 (1981)).
as §1, §2

Assay [2] has as its system Staphylococcus aureus 6538-P. Particulars: strain A: Staphylococcus aureus 6538-P; for MIC: read-out: minimum inhibition concentration. As for the experimental part: as §3, §1, §2
The subject of the next assay is Serratia marcescens 1023. Particulars: strain E: Serratia marcescens 1023. As for the experimental part: as §3, §1, §2
In the next assay the test system is Escherichia coli NIHJ. Particulars: for MIC: Escherichia coli, read-out: minimum inhibition concentration. Here is the method: as §3, §1, §2
The subject of assay [3] is Bacillus subtilis ATCC 6633. Particulars: for minimum inhibition concentration: strain B: Bacillus subtilis ATCC 6633; for MIC: Bacillus subtilis, ATCC6633, strain B: Bacillus subtilis ATCC 6633, read-out: minimum inhibition concentration. As for the experimental part: as §3, §1, §2
Assay [4] relates to Citrobactor freundii NIH-10018 -68. Particulars: strain O: Citrobactor freundii NIH-10018 -68; for MIC: read-out: minimum inhibition concentration. As for the experimental part: as §3, §1, §2
In assay [5] the test system is Salmonella typhimurium 3173. Particulars: for MIC: Salmonella enterica, TYPHIMURIUM
As for the experimental part:
as §3, §1, §2

Another assay concerns Klebsiella pneumoniae. Particulars: strain C: Klebsiella pneumoniae; for MIC: Klebsiella pneumoniae, read-out: minimum inhibition concentration. Here is the method: as §3, §1, §2
In assay [6] the test system is Enterobactor cloacae NCTC-9394. Particulars: strain N: Enterobactor cloacae NCTC-9394; for MIC: read-out: minimum inhibition concentration. Here is the method: as §3, §1, §2
For assay [7], the system named is Serratia marcescens IFO-3736. Particulars: for minimum inhibition concentration: strain F: Serratia marcescens IFO-3736; for MIC: Serratia marcescens. As for the experimental part: as §3, §1, §2
A further assay deals with Escherichia coli NIHJC-2. Particulars: for minimum inhibition concentration: strain L: Escherichia coli NIHJC-2; for MIC: Escherichia coli. As for the experimental part: as §3, §1, §2
Another assay deals with Proteus morgani Kono. Particulars: for MIC: read-out: minimum inhibition concentration. Here is the method: as §3, §1, §2
Assay [8] has as its system Proteus mirabillis B-30-2 IFO-3849. Here is the method:
as §3, §1, §2

For the next assay, the system named is Proteus rettgeri NIH-96. Particulars: for minimum inhibition concentration: strain I: Proteus rettgeri NIH-96; for MIC: Providencia rettgeri, NIH96, strain I: Proteus rettgeri NIH-96, read-out: minimum inhibition concentration.
Description: as §1, §2

Where [9] appears, read: strain K: Escherichia coli NIHJ.
The mark [10] stands for this setting: strain D: Salmonella typhimurium 3173.
Setting [11] is: strain G: Proteus mirabillis B-30-2 IFO-3849.
Where [12] appears, read: NCTC10490, strain M: Pseudomonas aeruginosa NCTC-10490, read-out: minimum inhibition concentration.
Where [13] appears, read: strain D: Salmonella typhimurium 3173, read-out: minimum inhibition concentration.
Where [14] appears, read: IFO3736, strain F: Serratia marcescens IFO-3736, read-out: minimum inhibition concentration.
[15] abbreviates: NIHJC2, strain L: Escherichia coli NIHJC-2, read-out: minimum inhibition concentration.
Where [16] appears, read: strain G: Proteus mirabillis B-30-2 IFO-3849, read-out: minimum inhibition concentration.

Converted amounts (≈) assume the structure as drawn. “And” between values parts separate entries of the source, which are not always exact repeats. Equal entries are not always repeated. Structures can show the parent of a compound that is named as a salt. Where two headings read alike, the source gives them in different places.

Regarding “7-[2-chloromethylene-2-(2-aminothiazol-4-yl)acetamido]-3-[(2,5-dihydro-6-hydroxy-2-methyl-5-oxo-as-triazin-3-yl)thiomethyl-3-cephem-4-carboxylic acid disodium salt [Compound 22]”, the minimum inhibition concentration is 0.1 µg/mL in the assay on Proteus vulgaris OX-19; 6.25 µg/mL in assay [1]; 0.78 µg/mL in assay [2]; 6.25 µg/mL with Serratia marcescens 1023; under 0.00625 µg/mL in the assay with Escherichia coli NIHJ (setting [9]); 6.25 µg/mL in assay [3]. Further, the minimum inhibition concentration in [4] turned out to be 1.56 µg/mL; in [5] (setting [10]), 1.56 µg/mL; in the assay on Klebsiella pneumoniae, 0.78 µg/mL; in [6], 0.39 µg/mL; in [7], 1.56 µg/mL; in the assay with Escherichia coli NIHJC-2, 3.125 µg/mL. The minimum inhibition concentration (with Proteus morgani Kono (strain J: Proteus morgani Kono); in assay [8] (setting [11])) was 0.39 µg/mL throughout.

“7-[2-dichloromethylene-2-(2-aminothiazol-4-yl)acetamido]-3-(l-carboxymethyltetrazol-5-yl)thiomethyl-3-cephem-4-carboxylic acid disodium salt [7-(3)]”: the minimum inhibition concentration in the assay on Proteus rettgeri NIH-96 is under 0.025 µg/mL; in the assay on Proteus vulgaris OX-19, 0.1 µg/mL; in [1], 6.25 µg/mL; in [2], 6.25 µg/mL; with Escherichia coli NIHJ (setting [9]), under 0.025 µg/mL; in assay [3], 12.5 µg/mL. Moreover, the minimum inhibition concentration in assay [4] is 12.5 µg/mL; in [5] (setting [10]), 6.25 µg/mL; in the assay with Klebsiella pneumoniae, 12.5 µg/mL; in [6] it was 3.125 µg/mL; in assay [7], 25 µg/mL; in the assay on Escherichia coli NIHJC-2 it was 25 µg/mL. In addition, the minimum inhibition concentration turned out to be 3.125 µg/mL in the assay with Proteus morgani Kono (strain J: Proteus morgani Kono) and 1.56 µg/mL in assay [8] (setting [11]).

As to `Cn1nnnc1SCC1=C(C(=O)O)N2C(=O)C(NC(=O)C(=C(Cl)Cl)c3csc(N)n3)C2SC1` (stereo not drawn) [6-(3), 7-[2-dichloromethylene-(2-aminothiazol-4-yl)-acetamido]-3-(l-methyl-lH-tetrazol-5-yl)thiomethyl-3-cephem-4-carboxylic acid sodium salt], the minimum inhibition concentration in the assay with Proteus rettgeri NIH-96 is under 0.025 µg/mL; with Proteus vulgaris OX-19, 0.1 µg/mL; in assay [2] it was 0.78 µg/mL; with Escherichia coli NIHJ (strain K: Escherichia coli NIHJ, sodium salt) it was 0.05 µg/mL; in assay [3] (sodium salt), 25 µg/mL; in assay [5] (strain D: Salmonella typhimurium 3173, sodium salt), 3.125 µg/mL. The minimum inhibition concentration in the assay with Klebsiella pneumoniae (sodium salt) came out at 6.25 µg/mL.

As for `CC1=C(C(=O)O)N2C(=O)C(NC(=O)C(=C(Cl)Cl)c3csc(N)n3)C2SC1` (stereo not drawn) [8-(3), 7-[2-dichloromethylene-2-(2-aminothiazol-4-yl)-acetamido]-desacetoxycephalosporanic acid sodium salt], the MIC was 0.2 µg/mL in the assay with Proteus rettgeri NIH-96; 12.5 µg/mL in the assay with Proteus vulgaris OX-19; over 100 µg/mL in [1] (setting [12]); 25 µg/mL in assay [2]; 6.25 µg/mL in the assay with Escherichia coli NIHJ (setting [9]); 100 µg/mL in assay [3]. Further, the MIC in assay [4] was over 100 µg/mL; in assay [5] (setting [13]), over 100 µg/mL; in the assay with Klebsiella pneumoniae it was over 100 µg/mL; in assay [6] it was 100 µg/mL; in [7] (setting [14]) it was over 100 µg/mL; with Escherichia coli NIHJC-2 (setting [15]) it was 100 µg/mL. Moreover, the MIC with Proteus morgani Kono (strain J: Proteus morgani Kono) was over 100 µg/mL; in assay [8] (setting [16]), 100 µg/mL.

On to `CSc1nnc(SCC2=C(C(=O)O)N3C(=O)C(NC(=O)C(=C(Cl)Cl)c4csc(N)n4)C3SC2)s1` (stereo not drawn) [9-(2), 7-[2-dichloromethylene-2-(aminothiazol-4-yl)-acetamido]-3-(2-methylthio-l,3,4-thiadiazol-5-yl) thiomethyl-3-cephem-4-carboxylic acid sodium salt], for which the MIC in the assay with Proteus rettgeri NIH-96 is under 0.025 µg/mL; in the assay on Proteus vulgaris OX-19 it was 0.2 µg/mL; in [1] (setting [12]) it was 12.5 µg/mL; in [2], 0.78 µg/mL; in the assay on Escherichia coli NIHJ (setting [9]), under 0.025 µg/mL; in [3] it was 3.12 µg/mL. Besides, the MIC in assay [4] stood at 12.5 µg/mL; in assay [5] (setting [13]) it was 12.5 µg/mL; with Klebsiella pneumoniae it was 12.5 µg/mL; in assay [6], 3.12 µg/mL; in assay [7] (setting [14]), 50 µg/mL; in the assay with Escherichia coli NIHJC-2 (setting [15]), 25 µg/mL. The MIC stood at 12.5 µg/mL in the assay with Proteus morgani Kono (strain J: Proteus morgani Kono) and 25 µg/mL in assay [8] (setting [16]).

Regarding `CN(C)CCn1nnnc1SCC1=C(C(=O)O)N2C(=O)C(NC(=O)C(=C(Cl)Cl)c3csc(N)n3)C2SC1` (stereo not drawn) [10-(1), 7-[2-dichloromethylene-2-(2-aminothiazol-4-yl)-acetamido]-3-[l-(2-dimethylaminoethyl)-lH-tetrazol-5-yl]thiomethyl-3-cephem-4-carboxylic acid], the MIC in the assay on Proteus rettgeri NIH-96 is 0.05 µg/mL (≈ 0.0824 µM); in the assay with Proteus vulgaris OX-19, 0.78 µg/mL (≈ 1.29 µM); in [1] (setting [12]) it was 25 µg/mL (≈ 41.2 µM); in [2], 3.12 µg/mL (≈ 5.15 µM); with Escherichia coli NIHJ (setting [9]), 0.1 µg/mL (≈ 0.165 µM); in assay [3], 12.5 µg/mL (≈ 20.6 µM). For the same molecule, the MIC in [4] was found to be 12.5 µg/mL (≈ 20.6 µM); in assay [5] (setting [13]), 12.5 µg/mL (≈ 20.6 µM); in the assay with Klebsiella pneumoniae, 12.5 µg/mL (≈ 20.6 µM); in assay [6], 3.12 µg/mL (≈ 5.15 µM); in [7] (setting [14]), 50 µg/mL (≈ 82.4 µM); with Escherichia coli NIHJC-2 (setting [15]), 12.5 µg/mL (≈ 20.6 µM). The MIC in the assay with Proteus morgani Kono (strain J: Proteus morgani Kono) was determined as 12.5 µg/mL (≈ 20.6 µM); in assay [8] (setting [16]) it was 25 µg/mL (≈ 41.2 µM).

Turning to `CC(=O)OCC1=C(C(=O)O)N2C(=O)[C@@H](NC(=O)Cc3cccs3)[C@H]2SC1` [Cephalo-thin, reference compound], the MIC in [1] (NCTC10490, read-out: minimum inhibition concentration) is over 100 µg/mL; with Escherichia coli NIHJ it was 12.5 µg/mL (≈ 31.5 µM); in [5] (read-out: minimum inhibition concentration, strain D: Salmonella typhimurium 3173), 3.17 µg/mL (≈ 8.01 µM); in assay [6], 50 µg/mL (≈ 126 µM); in assay [7] (IFO3736, read-out: minimum inhibition concentration), over 100 µg/mL; in the assay on Escherichia coli NIHJC-2 (NIHJC2, read-out: minimum inhibition concentration), 12.5 µg/mL (≈ 31.5 µM). For the same molecule, the MIC is 25 µg/mL (≈ 63.1 µM) with Escherichia coli NIHJC-2 (setting [15]); over 100 µg/mL with Proteus morgani Kono; 12.5 µg/mL (≈ 31.5 µM) in assay [8] (read-out: minimum inhibition concentration, strain G: Proteus mirabillis B-30-2 IFO-3849). In addition, the minimum inhibition concentration in assay [5] (setting [10]) is 6.25 µg/mL (≈ 15.8 µM); in assay [6], over 100 µg/mL; with Escherichia coli NIHJC-2, 50 µg/mL (≈ 126 µM); in assay [8] (setting [11]) it was 25 µg/mL and 12.5 µg/mL.

Turning to `CC(=O)OCC1=C(C(=O)O)N2C(=O)C(NC(=O)C(=C(Cl)Cl)c3ccccc3)[C@H]2SC1` (stereo partly drawn) [Compound 38, 7-(2-dichloromethylene-2-phenylacetamido)-3-acetoxymethyl-3-cephem-4-carboxylic acid], the MIC is over 100 µg/mL in [1] (setting [12]), 1.56 µg/mL (≈ 3.31 µM) in [2] and 3.1 µg/mL (≈ 6.58 µM) in the assay on Escherichia coli NIHJ (setting [9]).
